The values below come from patent publication US4223024A, “4"-O-Alkylgentamicins and sagamicins” (Abbott Laboratories, priority 1979, dated 1980).

Values after ≈ are worked out from the molar mass of the structure shown.

Data set [1] concerns aerobic gram-negative bacteria. Conditions: background statement; cited from earlier work.
In data set [2] the test system is Staphylococcus aureus ATCC 6538P. In words: two fold dilution test (MIC), Staphylococcus aureus ATCC 6538P. The format is cell-based. The note with it: Streptomycin Assay Agar with yeast extract, pH 7.9, overnight. The procedure: (§1) The in vitro antibiotic activity is determined by a two fold dilution test using Streptomycin Assay Agar with yeast extract (at pH 7.9). The inoculum of approximately 1×10^5 of the indicated test organism is delivered by a multiple inoculator. The test is incubated over night.
(§2) The minimum inhibitory concentrations for the compounds of Example 4, Example 8, compound 1 and Example 12 compound, are set forth in Table II. The minimum inhibitory concentrations (MIC) are expressed in micrograms per ml.

In data set [3] the test system is Streptococcus faecalis ATCC 10541. In words: two fold dilution test (MIC), Streptococcus faecalis ATCC 10541. The note with it: pH 7.9, overnight; for MIC (minimum inhibitory concentration): Streptomycin Assay Agar with yeast extract. The format is cell-based. The procedure: as §1, §2
The next data set deals with Escherichia coli ATCC 26. In words: two fold dilution test (MIC), Escherichia coli ATCC 26. Conditions: pH 7.9, overnight; for MIC (minimum inhibitory concentration): Streptomycin Assay Agar with yeast extract. Format: cell-based. The procedure:
as §1, §2

A further data set has as its system Escherichia coli R3. In words: two fold dilution test (MIC), Escherichia coli R3. The format is cell-based. The note with it: Streptomycin Assay Agar with yeast extract, pH 7.9, overnight. As to the method:
as §1, §2

The test system of data set [4] is Pseudomonas aeruginosa BMH #1. The data set can be described thus: two fold dilution test (MIC), Pseudomonas aeruginosa BMH #1. Format: cell-based. Conditions: Streptomycin Assay Agar with yeast extract, pH 7.9, overnight. As to the method: as §1, §2
For data set [5], the system named is Bacillis subtilis U. of I1. 10707. In words: two fold dilution test (MIC), Bacillis subtilis U. of I1. 10707. The format is cell-based. Conditions: Streptomycin Assay Agar with yeast extract, pH 7.9, overnight. The procedure: as §1, §2
Data set [6] concerns Proteus vulgaris ATCC 6897. The data set can be described thus: two fold dilution test (MIC), Proteus vulgaris ATCC 6897. Conditions: pH 7.9, overnight; for MIC (minimum inhibitory concentration): Streptomycin Assay Agar with yeast extract. The format is cell-based. The procedure: as §1, §2
For data set [7], the system named is Shigella sonnei ATCC 9290. The data set can be described thus: two fold dilution test (MIC), Shigella sonnei ATCC 9290. Format: cell-based. The note with it: pH 7.9, overnight; for MIC (minimum inhibitory concentration): Streptomycin Assay Agar with yeast extract. The procedure:
as §1, §2

In data set [8] the test system is Salmonella typhi ATCC 9992. The data set can be described thus: two fold dilution test (MIC), Salmonella typhi ATCC 9992. Conditions: for MIC (minimum inhibitory concentration): Salmonella typhi ATCC 9992, Streptomycin Assay Agar with yeast extract, pH 7.9, overnight. Format: cell-based. As to the method:
as §1, §2

Data set [9] deals with Klebsiella pneumonia ATCC 10031. The data set can be described thus: two fold dilution test (MIC), Klebsiella pneumonia ATCC 10031. The format is cell-based. Conditions: pH 7.9, overnight; for MIC (minimum inhibitory concentration): Streptomycin Assay Agar with yeast extract. As to the method: as §1, §2
The conditions of data set [10]: compared with gentamicin; background statement; cited from earlier work.
Where [11] appears, read: read-out: MIC (minimum inhibitory concentration).

Regarding gentamicin, the “anti-bacterial spectrum / effectiveness” value in data set [1] was “effective against most aerobic gram-negative bacteria”.

Regarding `CNC1C(O)C(OC2C(N)CC(N)C(OC3OC(CN)CCC3N)C2O)OCC1(C)OC` (stereo not drawn) [Ex 12, 5-Epi-4"-O-methylgentamicin C1a], the “MIC (minimum inhibitory concentration)” value in [2] stood at 0.005 µg/mL (≈ 0.0108 µM); in data set [3], 25.00 µg/mL (≈ 53.9 µM); in the data set with Escherichia coli ATCC 26, 0.02 µg/mL (≈ 0.0431 µM); against Escherichia coli R3 it was 2.5 µg/mL (≈ 5.39 µM); in [4], 0.63 µg/mL (≈ 1.36 µM); in [5] it was 0.005 µg/mL (≈ 0.0108 µM). The “MIC (minimum inhibitory concentration)” value in data set [6] was 0.08 µg/mL (≈ 0.173 µM); in data set [7], 0.08 µg/mL (≈ 0.173 µM); in data set [8], 0.01 µg/mL (≈ 0.0216 µM); in [9] it was 0.005 µg/mL (≈ 0.0108 µM).

On to `CNCC1CCC(N)C(OC2C(N)CC(N)C(OC3OCC(C)(OC)C(NC)C3O)C2O)O1` (centres unmarked) [Ex 8(1), 4"-O-Methylsagamicin], for which the MIC amounted to 0.05 µg/mL (≈ 0.105 µM) in [2] (ATCC6538P, read-out: MIC (minimum inhibitory concentration)); 12.5 µg/mL (≈ 26.2 µM) in data set [3] (Enterococcus faecalis, ATCC10541, Streptomycin Assay Agar with yeast extract, read-out: MIC (minimum inhibitory concentration)); 0.05 µg/mL (≈ 0.105 µM) in the data set with Escherichia coli ATCC 26 (ATCC26, Streptomycin Assay Agar with yeast extract, read-out: MIC (minimum inhibitory concentration)); 3.1 µg/mL (≈ 6.49 µM) with Escherichia coli R3 (setting [11]); 0.4 µg/mL (≈ 0.838 µM) in data set [4] (setting [11]); 0.005 µg/mL (≈ 0.0105 µM) in data set [5] (setting [11]). Further, the MIC in data set [6] (ATCC6897, Streptomycin Assay Agar with yeast extract, read-out: MIC (minimum inhibitory concentration)) came out at 0.05 µg/mL (≈ 0.105 µM); in data set [7] (ATCC9290, Streptomycin Assay Agar with yeast extract, read-out: MIC (minimum inhibitory concentration)), 0.05 µg/mL (≈ 0.105 µM); in [8] (Salmonella enterica, pH 7.9, read-out: MIC (minimum inhibitory concentration)) it was 0.05 µg/mL (≈ 0.105 µM); in data set [9] (Klebsiella pneumoniae, ATCC10031, Streptomycin Assay Agar with yeast extract, read-out: MIC (minimum inhibitory concentration)), 0.05 µg/mL (≈ 0.105 µM).

For `CNC1C(O)C(OC2C(N)CC(N)C(OC3OC(CN)CCC3N)C2O)OCC1(C)OC` (centres unmarked) [Ex 4, 4"-O-Methylgentamicin C1a], the “MIC (minimum inhibitory concentration)” value was found to be 0.005 µg/mL (≈ 0.0108 µM) in data set [2]; 10.000 µg/mL (≈ 21.6 µM) in data set [3]; 0.005 µg/mL (≈ 0.0108 µM) in the data set with Escherichia coli ATCC 26; 10.000 µg/mL (≈ 21.6 µM) with Escherichia coli R3; 0.63 µg/mL (≈ 1.36 µM) in [4]; 0.005 µg/mL (≈ 0.0108 µM) in data set [5]. In addition, the “MIC (minimum inhibitory concentration)” value in data set [6] is 0.08 µg/mL (≈ 0.173 µM); in [7] it was 0.04 µg/mL (≈ 0.0863 µM); in data set [8] it was 0.01 µg/mL (≈ 0.0216 µM); in data set [9], 0.005 µg/mL (≈ 0.0108 µM).

`CNCC1CCC(N)C(OC2C(N)CC(N)C(OC3OCC(C)(O)C(NC)C3O)C2O)O1` (centres unmarked) [Sagamicin, sagamicin]: the ototoxicity result in data set [10] is “lower ototoxicity than does gentamicin”.
